# According to patent publication US10278974B2 (Pfizer Inc., priority 2010, dated 2019):
# What was measured:
# Assay type in all cases: physicochemical
# [1] = Susceptibility of salt forms to hydration; conditions: compared to other salt forms of Compound 1; solid dosage form suitability
# [2] = Physical stability on storage, followed by PXRD; conditions: two weeks of storage at 70° C. with 75% relative humidity
# Experimental: A PXRD pattern for maleate polymorph Form B was measured at: 1) an initial time point and 2): two weeks after storage at 70° C. with 75% relative humidity (RH).
# A PXRD pattern for S-camsylate polymorph Form A was measured at: 1) an initial time point and 2): two weeks after storage at 70° C. with 75% relative humidity (RH).
# [3] = Hygroscopicity by dynamic vapor sorption (DVS); conditions: 30° C., 0 to 90% RH in 15% RH intervals
# Experimental: Solid (20-25 mg) was exposed to a controlled relative humidity (% RH) and temperature environment (30° C.), and the weight change was recorded over time. The humidity was stepped from 0 to 90% RH in 15% RH intervals.
susceptibility to hydration [1],change of PXRD pattern after storage (physical stability) [2],hygroscopicity indicated by dynamic vapor sorption isotherm [3],Compound
not susceptible to hydration,did not change significantly,non-hygroscopic,CC1(C)[C@@H]2CC[C@@]1(CS(=O)(=O)O)C(=O)C2.CNCc1ccc(-c2[nH]c3cc(F)cc4c3c2CCNC4=O)cc1 [S-camsylate polymorph Form A]
not susceptible to hydration,did not change significantly,non-hygroscopic,CNCc1ccc(-c2[nH]c3cc(F)cc4c3c2CCNC4=O)cc1.O=C(O)C=CC(=O)O [maleate polymorph Form B]
